Values of other authors in patent publication US20240228797A1, “LIQUID REPELLENT SLIPPERY SURFACES AND METHODS OF PREPARATION THEREOF” (priority 2021, published 2024).

## CC(C)CCCC(C)CCCC(C)CCCCC(C)CCCC(C)CCCC(C)C (stereo not shown) [Squalane, squalane]
  water solubility: extremely low water solubility
